Results published in patent US20230092890A1, “1, 3, 4-Oxadiazole derivative compounds as histone deacetylase 6 inhibitor, and the pharmaceutical composition comprising the same” (Chong Kun Dang Pharmaceutical Corp., priority 2019, published 2023).

What was measured:
[1] = target: T1, HDAC6 human recombinant (Homo sapiens, UniProt Q9UBN7); experiment: HDAC enzyme activity inhibition (in vitro), HDAC6 assay; format: biochemical; details: samples at 0.1, 1, 10, 100 and 1000 nM; 37° C. 60 minutes; fluorescence Ex 390, Em 460; read-out: HDAC6 IC50
T1 construct: purchased Calbiochem 382180
T1 sequence (Q9UBN7 1-1215): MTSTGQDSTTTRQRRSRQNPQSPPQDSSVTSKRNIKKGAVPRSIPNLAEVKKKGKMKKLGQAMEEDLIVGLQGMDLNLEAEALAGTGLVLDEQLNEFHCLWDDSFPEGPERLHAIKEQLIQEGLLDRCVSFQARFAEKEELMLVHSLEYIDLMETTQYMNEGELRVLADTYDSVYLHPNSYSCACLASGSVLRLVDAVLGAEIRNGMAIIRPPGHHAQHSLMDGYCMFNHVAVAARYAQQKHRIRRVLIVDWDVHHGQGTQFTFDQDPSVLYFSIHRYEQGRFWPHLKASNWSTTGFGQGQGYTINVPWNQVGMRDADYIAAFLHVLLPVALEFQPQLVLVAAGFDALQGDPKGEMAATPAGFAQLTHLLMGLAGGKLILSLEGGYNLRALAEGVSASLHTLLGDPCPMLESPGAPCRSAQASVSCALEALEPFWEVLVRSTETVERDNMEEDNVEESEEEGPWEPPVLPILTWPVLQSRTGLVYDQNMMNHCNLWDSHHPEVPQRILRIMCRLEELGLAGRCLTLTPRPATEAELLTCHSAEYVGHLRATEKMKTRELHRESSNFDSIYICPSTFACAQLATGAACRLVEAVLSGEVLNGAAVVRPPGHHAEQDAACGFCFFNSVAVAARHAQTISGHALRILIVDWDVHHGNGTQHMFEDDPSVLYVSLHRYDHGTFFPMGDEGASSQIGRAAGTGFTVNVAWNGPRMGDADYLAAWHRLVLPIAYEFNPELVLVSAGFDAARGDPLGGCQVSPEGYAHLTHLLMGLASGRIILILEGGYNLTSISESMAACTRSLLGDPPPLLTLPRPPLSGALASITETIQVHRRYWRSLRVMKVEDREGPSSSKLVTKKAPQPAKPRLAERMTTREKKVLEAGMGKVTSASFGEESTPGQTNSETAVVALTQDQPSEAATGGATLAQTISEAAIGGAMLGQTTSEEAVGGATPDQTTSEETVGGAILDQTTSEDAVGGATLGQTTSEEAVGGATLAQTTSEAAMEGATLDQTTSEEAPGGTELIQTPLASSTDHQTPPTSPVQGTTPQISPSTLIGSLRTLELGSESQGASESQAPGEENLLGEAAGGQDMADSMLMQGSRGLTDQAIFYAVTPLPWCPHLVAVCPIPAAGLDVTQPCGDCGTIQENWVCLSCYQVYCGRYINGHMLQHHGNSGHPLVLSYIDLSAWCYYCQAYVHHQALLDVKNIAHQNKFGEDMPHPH
In short: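 Fluorescence (Ex 390, Em 460) read after a 37° C, 60 min enzyme reaction and a further 30 min developer step at 37° C. Uses recombinant human HDAC6; HDAC1 arm dosed at 100, 1000, 10000 nM.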

[2] = target: T2, HDAC1 (Homo sapiens, UniProt Q13547); experiment: HDAC enzyme activity inhibition (in vitro), HDAC1 Fluorimetric Drug Discovery Assay Kit; format: biochemical; details: samples at 100, 1000 and 10000 nM; 37° C. 60 minutes; fluorescence Ex 390, Em 460; read-out: HDAC1 IC50
T2 construct: purchased Enzolifesciences BML-AK511
T2 sequence (Q13547 whole entry): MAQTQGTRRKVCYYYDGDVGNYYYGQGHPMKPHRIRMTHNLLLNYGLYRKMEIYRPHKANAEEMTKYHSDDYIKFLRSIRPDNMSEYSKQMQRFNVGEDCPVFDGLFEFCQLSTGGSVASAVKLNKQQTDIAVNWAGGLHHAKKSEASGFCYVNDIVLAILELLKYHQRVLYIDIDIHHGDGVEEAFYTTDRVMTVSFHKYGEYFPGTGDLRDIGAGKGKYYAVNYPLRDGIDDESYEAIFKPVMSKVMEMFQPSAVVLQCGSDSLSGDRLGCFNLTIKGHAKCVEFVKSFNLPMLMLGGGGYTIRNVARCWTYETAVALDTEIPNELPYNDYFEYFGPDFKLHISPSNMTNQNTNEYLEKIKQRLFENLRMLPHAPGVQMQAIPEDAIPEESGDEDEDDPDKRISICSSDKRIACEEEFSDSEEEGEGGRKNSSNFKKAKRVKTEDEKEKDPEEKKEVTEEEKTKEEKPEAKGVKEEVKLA
In short: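 Fluorimetric read-out (Ex 390, Em 460) after a 60 min 37° C enzyme reaction and 30 min 37° C developer step. Tested levels: 0.1-1000 nM (0.1, 1, 10, 100, 1000) on recombinant human HDAC6; 100, 1000 and 10000 nM on HDAC1 kit enzyme.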

IC50 [1]: 20 nM
IC50 [2]: > 10 µM
Structure (SMILES): CN1CCC(n2c(=O)n(Cc3ccc(-c4nnc(C(F)F)o4)cn3)c3cc(F)c(-c4cccnc4)cc32)CC1 [Compound 155, 1-((5-(5-(difluoromethyl)-1,3,4-oxadiazole-2-yl)pyridine-2-yl)methyl)-6-fluoro-3-(1-methylpiperidine-4-yl)-5-(pyridine-3-yl)-1,3-dihydro-2H-benzo[d]imidazole-2-one]
